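Grown in 96-well plates, cells were treated for 48 hours with each compound at five concentrations. Insufficient inhibition: endpoint recorded as highest concentration tested. TGI is the concentration that stops growth completely.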 Where only a bound is given, the exact number is not on record here.

TGI data for nine molecules are collected here from PubChem BioAssay (NCI).

Some test systems named below: DU-145 prostate; BT-549 breast; PC-3 prostate; MDA-MB-231 breast; DLD-1 colon; KM20L2 colon; LXFL 529 NSCLC; P388 leukemia; P388/ADR leukemia; SN12K1 renal; RXF-631 renal.
What all share (assay): NCI tumour cell line growth inhibition, 48 h

For the molecule `COC(=O)C1C(C(=O)OC)N(Cc2ccccc2)C(=O)N1Cc1ccccc1` (stereo not given), the TGI in the assay on DU-145 prostate, in the assay with BT-549 breast and in the assay on PC-3 prostate was above 100 µM throughout.
With `CCOC(=O)c1csc(NC(=O)CCN(CC)CC)n1`, the TGI with DU-145 prostate, in the assay with MDA-MB-231 breast and in the assay with PC-3 prostate was above 100 µM each time.
As for `CCN1c2ccccc2-n2c(C)nnc2-c2c1n[nH]c2-c1ccccc1`, the TGI was above 100 µM in the assay with DU-145 prostate, 71.1 µM in the assay on MDA-MB-231 breast and 96.5 µM with PC-3 prostate.
Consider `C[C@]12CC[C@@H]3c4ccc(O)cc4CC[C@H]3[C@@H]1C/C(=C\c1ccncc1)C2=O`, for which the TGI in the assay on DU-145 prostate is 91.6 µM; in the assay on MDA-MB-231 breast it was above 100 µM; with PC-3 prostate, above 100 µM.
With `C=CCN1C(=O)/C(=C/c2ccccc2)N=C1SC1OC(COC(=O)c2ccccc2)C(OC(=O)c2ccccc2)C1OC(=O)c1ccccc1` (stereo not given), the TGI in the assay with DU-145 prostate, with BT-549 breast, with MDA-MB-231 breast and in the assay on PC-3 prostate was above 100 µM throughout.
On to `C#CCCCCC#Cc1ccccc1C(=O)OC`, for which the TGI in the assay on DLD-1 colon and in the assay with KM20L2 colon was above 100 µM in each case.
Take `C/C(CCOC1CCCCO1)=C(\C)[Si](C)(C)C` (stereo not given): the TGI in the assay with LXFL 529 NSCLC, in the assay on DLD-1 colon and with KM20L2 colon was above 100 µM throughout.
Take `COCCOCOc1ccc(OCc2ccccc2)cc1`: the TGI in the assay on P388 leukemia is 60.7 µM; in the assay with P388/ADR leukemia it was 89.1 µM; in the assay with SN12K1 renal, above 100 µM; in the assay with DLD-1 colon, above 100 µM; in the assay with KM20L2 colon, above 100 µM.
Turning to `C=C(C(=O)C(=O)Oc1ccc(Cl)cc1)C(=O)c1ccc(C)cc1`, the TGI in the assay with RXF-631 renal was above 100 µM; in the assay with LXFL 529 NSCLC, 80 µM; in the assay with DLD-1 colon, 99.3 µM; with KM20L2 colon, above 100 µM.
